Like-named read-outs stand apart in the source and are kept apart here.
Legend:
α6β2* nAChRs [1] = target: T1, α6β2* nAChRs (Mus musculus, UniProt Q9ERK7+Q9R0W9); assay: biochemical; format: biochemical; settings: for EC50: read-out: Neurotransmitter release EC50 (converted); for Emax: relative to nicotine
Procedure: Regions of interest were dissected from fresh mouse brains and homogenized in ice-cold isotonic sucrose (0.32 M), buffered with HEPES (5 mM, pH 7.5). The suspension was centrifuged at 12,000 × g for 20 min. The pellet was re-suspended in the appropriate uptake buffer ([Grady et al., 2001]; [Salminen et al., 2004]; [Marks et al., 2006]) and used immediately.
Superfusion was carried out at 22°C using a buffer containing: NaCl, 128 mM; KCl, 2.4 mM; CaCl2, 3.2 mM; MgSO4, 1.2 mM; KH2PO4, 1.2 mM; HEPES, 25 mM; glucose, 10 mM; ascorbic acid, 1 mM; pargyline, 0.01 mM; 0.1% BSA; nomifensine, 1 μM (to prevent the re-uptake of dopamine); atropine, 1 μM (to prevent muscarinic receptor activation); pH 7.5. Superfusion proceeded at 0.7 mL/min for 10 min before stimulation with agonist for 20 s. Selected aliquots were perfused with α-CtxMII (50 nM) for 3 min immediately before stimulation. This concentration of α-CtxMII was sufficient to inhibit α6β2^∗-nAChRs in the mouse striatum ([Salminen et al., 2004], [2007]). Fractions (∼0.1 mL) were collected into 96-well plates at 10 s intervals for 4 min (starting ∼1 min before stimulation). After adding 0.15 mL of Optiphase SuperMix scintillation cocktail, radioactivity was measured using a 1450 MicroBeta TriLux counter (Perkin Elmer Life Sciences).
Target sequence in this assay (Q9R0W9 31-494): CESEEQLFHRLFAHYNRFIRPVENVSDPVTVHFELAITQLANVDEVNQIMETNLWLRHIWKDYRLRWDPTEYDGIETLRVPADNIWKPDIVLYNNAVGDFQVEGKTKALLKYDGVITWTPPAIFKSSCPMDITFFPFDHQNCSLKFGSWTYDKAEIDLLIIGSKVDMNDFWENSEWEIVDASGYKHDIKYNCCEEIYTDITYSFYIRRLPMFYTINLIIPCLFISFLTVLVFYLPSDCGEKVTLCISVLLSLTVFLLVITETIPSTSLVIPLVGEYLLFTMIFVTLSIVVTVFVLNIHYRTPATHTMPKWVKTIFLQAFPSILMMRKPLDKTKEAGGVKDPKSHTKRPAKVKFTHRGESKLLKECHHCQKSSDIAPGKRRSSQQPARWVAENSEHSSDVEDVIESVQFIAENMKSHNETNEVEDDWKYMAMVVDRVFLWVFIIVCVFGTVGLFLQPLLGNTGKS
Target sequence in this assay (Q9ERK7 26-501): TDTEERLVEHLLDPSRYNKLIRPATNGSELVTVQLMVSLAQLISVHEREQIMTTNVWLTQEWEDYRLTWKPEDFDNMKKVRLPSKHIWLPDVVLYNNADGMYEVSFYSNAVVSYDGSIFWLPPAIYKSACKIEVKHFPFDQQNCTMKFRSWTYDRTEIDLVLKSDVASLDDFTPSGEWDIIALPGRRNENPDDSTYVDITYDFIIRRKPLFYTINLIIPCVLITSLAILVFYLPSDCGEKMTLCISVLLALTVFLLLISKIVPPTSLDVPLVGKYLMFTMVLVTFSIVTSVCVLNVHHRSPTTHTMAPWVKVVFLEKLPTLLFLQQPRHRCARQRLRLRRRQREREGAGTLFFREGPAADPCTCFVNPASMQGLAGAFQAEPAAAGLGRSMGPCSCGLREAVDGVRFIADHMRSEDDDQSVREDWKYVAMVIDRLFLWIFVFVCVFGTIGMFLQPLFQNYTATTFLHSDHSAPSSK
Target sequence in this assay (Q8BMN3 31-464 partner): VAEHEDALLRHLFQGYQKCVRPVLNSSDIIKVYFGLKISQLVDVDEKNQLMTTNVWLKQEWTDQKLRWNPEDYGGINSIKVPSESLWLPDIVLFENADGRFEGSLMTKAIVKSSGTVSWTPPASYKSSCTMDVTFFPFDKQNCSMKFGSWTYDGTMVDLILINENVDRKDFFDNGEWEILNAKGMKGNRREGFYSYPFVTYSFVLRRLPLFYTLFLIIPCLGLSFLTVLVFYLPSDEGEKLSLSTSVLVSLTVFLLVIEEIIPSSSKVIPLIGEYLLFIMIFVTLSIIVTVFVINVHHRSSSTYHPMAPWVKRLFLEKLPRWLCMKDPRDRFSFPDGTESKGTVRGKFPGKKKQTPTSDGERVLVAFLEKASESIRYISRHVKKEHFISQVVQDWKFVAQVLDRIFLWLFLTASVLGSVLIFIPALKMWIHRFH

[2] = target: T2, Low-sensitivity α4(3)β2(2) nAChRs (Mus musculus, UniProt O70174+Q9ERK7); assay: 86Rb+ efflux from thalamic and cortical synaptosomes, DhβE-insensitive component; format: biochemical
T2 construct: from tissue; host or cells: WT mouse thalamic and cortical synaptosomes
Procedure: Regions of interest were dissected from fresh mouse brains and homogenized in ice-cold isotonic sucrose (0.32 M), buffered with HEPES (5 mM, pH 7.5). The suspension was centrifuged at 12,000 × g for 20 min.

[3] = In vitro metabolism in microsomes; format: in vitro ADME; settings: rat microsomes
WT and α6L9′S mice = assay: Locomotor assay in a novel environment; format: in vivo, mouse; settings: 0.5 μmol/kg ip (nicotine 0.08 mg/kg, TC299423 0.09 mg/kg)
Procedure: Mice were habituated to the experimental room for 2 h prior to the experiment. Horizontal locomotor activity was recorded using an infrared photobeam activity cage system (San Diego Instruments; San Diego, CA, United States). After habituating to the experimental room, mice were placed singly in a novel cage. Ambulations were recorded when two contiguous photobeams were broken in succession, preventing activity from being recorded by most sedentary animals. Ambulation events were measured for 45 min with four 15 s intervals per min. Mice were given a total of two intraperitoneal (ip) injections. First, mice were pre-injected with saline or 1 mg/kg mecamylamine before being placed in the activity cages.

[4] = test system: T3, Adenosine Transporter (h); assay: NovaScreen competition binding; parameters: species or system human; settings: 1 µM
T3 construct: PerkinElmer – Caliper Life Sciences (NovaScreen service)

Dopamine, D1 (h) = assay: NovaScreen competition binding; parameters: species or system human; settings: 1 µM
[5] = test system: Glutamate, MK-801 Site (Ionotropic); assay: NovaScreen competition binding; settings: 1 µM
Histamine, H1 = test system: T4, Histamine, H1; assay: NovaScreen competition binding; settings: 1 µM
T4 construct: PerkinElmer – Caliper Life Sciences (NovaScreen)

Opioid, Mu (h) = assay: NovaScreen competition binding; parameters: species or system human; settings: 1 µM
Sigma 2 = assay: NovaScreen competition binding; settings: 1 µM
[6] = test system: Nicotinic, Neuronal (α-BnTx insensitive); assay: NovaScreen competition binding; settings: 1 µM
Text: (§1) Assays included the nicotinic drug [^3H]epibatidine binding to α-bungarotoxin-insensitive nAChRs, the 5-HT3 inhibitor [N-methyl-^3H]GR65630 to mouse receptors in N1E-115 cells, and human receptors expressed in a clonal cell line. Other assays included monoamine oxidase A, monoamine oxidase B, 5-HT transporter, norepinephrine transporter, and dopamine transporter, as well as other. G-protein-coupled receptors, ion channels, enzymes, and transporters.

[7] = test system: Potassium Channel, ATP-Sensitive; assay: NovaScreen competition binding; settings: 1 µM
Text: as §1

Sodium, Site 2 = assay: NovaScreen competition binding; settings: 1 µM
Angiotensin II, AT1 (h) = test system: T5, Angiotensin II, AT1 (h); assay: NovaScreen competition binding; parameters: species or system human; settings: 1 µM
T5 construct: PerkinElmer – Caliper Life Sciences (NovaScreen service)

Neurokinin, NK1 = assay: NovaScreen competition binding; settings: 1 µM
Neuropeptide, NPY2 (h) = test system: T6, Neuropeptide, NPY2 (h); assay: NovaScreen competition binding; parameters: species or system human; settings: 1 µM
T6 construct: PerkinElmer – Caliper Life Sciences (NovaScreen service)

Esterase, Acetylcholine = assay: NovaScreen enzyme assay; format: biochemical; settings: 1 µM
[8] = test system: T7, Phosphodiesterase, PDE4A1A (h); assay: NovaScreen enzyme assay; format: biochemical, human; settings: 1 µM
T7 construct: PerkinElmer – Caliper Life Sciences (NovaScreen service)

α4β2* nAChRs = α4β2* nAChRs (Mus musculus, UniProt O70174+Q9ERK7); assay: [125I]epibatidine binding, cortical membranes; parameters: from tissue; host or cells: cortical brain membranes (mouse)
Procedure: (§2) Brain membrane preparations were stored as pellets under buffer at -70°C or used immediately.

α6β2* nAChRs [9] = target: T1, α6β2* nAChRs; assay: [125I]epibatidine binding, striatal membranes from α4KO mice; parameters: from tissue; host or cells: striatal membranes from α4KO mice
Procedure: as §2
Target sequence in this assay (Q9ERK7 26-501): as the sequence (Q9ERK7 26-501) above
Target sequence in this assay (Q9R0W9 31-494): as the sequence (Q9R0W9 31-494) above

T2 sequence (O70174 31-629): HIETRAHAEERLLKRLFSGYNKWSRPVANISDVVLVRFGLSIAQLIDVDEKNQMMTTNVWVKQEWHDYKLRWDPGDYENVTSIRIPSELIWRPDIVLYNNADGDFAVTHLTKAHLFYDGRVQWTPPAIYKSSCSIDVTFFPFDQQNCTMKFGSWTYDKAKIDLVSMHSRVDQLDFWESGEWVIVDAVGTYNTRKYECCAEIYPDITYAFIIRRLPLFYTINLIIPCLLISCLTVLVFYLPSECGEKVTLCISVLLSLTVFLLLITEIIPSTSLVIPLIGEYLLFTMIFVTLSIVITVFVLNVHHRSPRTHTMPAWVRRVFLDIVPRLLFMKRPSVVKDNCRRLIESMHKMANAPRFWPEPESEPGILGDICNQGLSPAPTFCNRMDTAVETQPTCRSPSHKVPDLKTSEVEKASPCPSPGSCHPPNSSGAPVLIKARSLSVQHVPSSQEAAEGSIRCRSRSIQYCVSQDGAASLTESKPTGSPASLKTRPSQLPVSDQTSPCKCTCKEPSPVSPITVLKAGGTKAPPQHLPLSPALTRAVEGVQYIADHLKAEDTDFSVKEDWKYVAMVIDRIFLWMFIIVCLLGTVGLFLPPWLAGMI
T2 sequence (Q9ERK7 26-501): as the sequence (Q9ERK7 26-501) above
Chain of α4β2* nAChRs (O70174 31-629): as the sequence (O70174 31-629) above
Chain of α4β2* nAChRs (Q9ERK7 26-501): as the sequence (Q9ERK7 26-501) above

Structure (SMILES): C1=C(/c2cncnc2)CCCNCC/1 [TC299423, (E)-5-(pyrimidin-5-yl)-1,2,3,4,7,8-hexahydroazocine]
- EC50 (α6β2* nAChRs [1]; WT striatal synaptosomes): 30 ± 0.006 nM
- Maximal response, α-CtxMII-sensitive [3H]-dopamine release (α6β2* nAChRs [1]; calculated from Michaelis–Menten curve fit): 0.93 ± 0.08 units
- Emax (α6β2* nAChRs [1]; read-out: Neurotransmitter release % Efficacy, WT striatal synaptosomes): 50 ± 20%
- Emax (α6β2* nAChRs [1]; read-out: Neurotransmitter release % Efficacy, α5KO striatal synaptosomes): 54 ± 14%
- EC50 (α6β2* nAChRs [1]; α5KO striatal synaptosomes): 50 nM
- 86Rb+ efflux Efficacy ([2]; Cortex): 39 ± 4%
- EC50 ([2]; Cortex): 26000 ± 21000 nM
- 86Rb+ efflux Efficacy ([2]; Thalamus): 32 ± 10%
- EC50 ([2]; Thalamus): 10000 ± 10000 nM
- Half-life compared to varenicline [3]: ~7 fold
- half-life [3]: 1.32 h
- microsomal CLint ([3]; read-out: Clearance): 18 µL/min/mg
- Ambulatory activity in a novel environment (WT and α6L9′S mice; WT mice): Neither TC299423 nor nicotine affected WT ambulation
- Ambulatory activity in a novel environment (WT and α6L9′S mice; α6L9′S mice): dramatically increased the ambulatory activity
- Hit [4]: FALSE
- Inhibition ([4]; [3H]-NBTI): 12.86%
- Hit (Dopamine, D1 (h)): FALSE
- Inhibition (Dopamine, D1 (h); [3H]-SCH23390): -2.94%
- Hit [5]: FALSE
- Inhibition ([5]; [3H]MK-801): 5.46%
- Hit (Histamine, H1): FALSE
- Inhibition (Histamine, H1; [3H]Pyrilamine): 15.56%
- Hit (Opioid, Mu (h)): FALSE
- Inhibition (Opioid, Mu (h); [3H]-Diprenorphine): -6.43%
- Hit (Sigma 2): FALSE
- Inhibition (Sigma 2; [3H]-DTG): -0.65%
- Hit [6]: TRUE (TC299423 inhibited >50% of the reference radioligand for two sites)
- Inhibition ([6]; [3H]Epibatidine): 93.33%
- Hit [7]: TRUE (TC299423 inhibited >50% of the reference radioligand for two sites)
- Inhibition ([7]; [3H]Glibenclamide): 52.12%
- Hit (Sodium, Site 2): FALSE
- Inhibition (Sodium, Site 2; [3H]Batrachotoxin A 20-a-Benzo): 6.91%
- Hit (Angiotensin II, AT1 (h)): FALSE
- Inhibition (Angiotensin II, AT1 (h); [125I]-(Sar1-Ile8) Angiotensin): 24.85%
- Hit (Neurokinin, NK1): FALSE
- Inhibition (Neurokinin, NK1; [3H]Substance P): 2.10%
- Hit (Neuropeptide, NPY2 (h)): FALSE
- Inhibition (Neuropeptide, NPY2 (h); [125I]-PYY): 2.16%
- Hit (Esterase, Acetylcholine): FALSE
- Inhibition (Esterase, Acetylcholine; substrate Acetylthiocholine): 21.55%
- Hit [8]: FALSE
- Ki (α4β2* nAChRs; single component, cortical membranes): 0.24 ± 0.04 nM
- Difference between Ki ([125I]epibatidine) and EC50 ([3H]dopamine release) (α4β2* nAChRs; α4β2 nAChRs): ~500 fold
- Ki (α6β2* nAChRs [9]; α4KO striatal membranes): 1.4 ± 0.6 nM
- Difference between Ki ([125I]epibatidine) and EC50 ([3H]dopamine release) (α6β2* nAChRs [9]; α6β2* nAChRs): ~20 fold
